Source: patent US10434181B2, “Oligomer-containing benzamide-based compounds” (Nektar Therapeutics, priority 2012, dated 2019)
“And” between values parts separate entries of the source, which are not always exact repeats. Equal entries are not always repeated.

Experiments:
dopamine 2L receptors = dopamine 2L receptors (Homo sapiens, UniProt P14416); experiment: Competition binding assay (dopamine 2L receptors), [3H]methylspiperone; set-up: expressed in transfected cells; settings: for Fold-change Relative to Parent: IC50 relative to metoclopramide, D2L binding; for IC50: [3H]methylspiperone competition, HEK 293 membranes expressing D2L, read-out: IC50
Procedure: [^3H] Methylspiperone was diluted in assay buffer to a final concentration of 0.4 nM. To start the assay, 1 uL of compound was added into 96-well v-bottom plates, followed by the addition of 50 uL of diluted membrane preparation, then finally diluted [^3H] Methylspiperone was added. The assay mixture was incubated for 60 minutes at room temperature with shaking. Following incubation, bound [^3H] methylspiperone on 5% PEI soaked GF/B filter plates using a Filtermate Harvester (Perkin Elmer) were then washed four times with ice cold wash buffer (50 mM Tris-HCl, pH 7.5). Filter plates were air dried for two minutes, and then 50 uL of MicroScint-20 was added into each well. Radioactivity counts were quantified using a Top Count plate reader (Perkin Elmer). Data was analyzed using one-site binding competition non-linear regression curve fitting on GraphPad Prism.

dopamine 2S receptor = molecular target: T1, dopamine 2S receptor (Homo sapiens, UniProt P14416); experiment: β-Arrestin functional assay (dopamine), antagonist mode; assay type: cell-based; settings: for Fold-change Relative to Parent: IC50 relative to metoclopramide, D2S β-arrestin; for IC50: β-arrestin interaction, CHO-K1 cells expressing D2S, dopamine at EC80 (400 nM)
T1 construct: host or cells: CHO-K1 (PathHunter eXpress β-arrestin cells)

[1] = molecular target: T2, 5HT4B receptors (serotonin 4B receptors) (Homo sapiens, UniProt Q13639); experiment: Competition binding assay (serotonin 4B receptors), [3H]GR113808; settings: for Fold-change Relative to Parent: IC50 relative to metoclopramide, 5HT4B binding; for IC50: [3H]GR113808 competition, HEK 293 membranes expressing 5HT4B
T2 construct: expressed in transfected cells

[2] = Rat PK (intravenous and oral); settings: for CLRen: intravenous, 0.5 mg/kg; for Clast / Tlast: oral gavage, 2.5 mg/Kg
Procedure: (§3) Rat pharmacokinetic (“PK”) characterization was conducted in male Sprague Dawley Rats (Rattus Norvegicus) weighing between 210-260 gm (Charles River Laboratories (Hollister, Calif.)). Rats were fed a standard diet and water was available ad-libidum at all times. […] Animals were dosed either orally (2.5 mg/Kg) via gavage or intravenously (0.5 mg/kg) via the jugular vein cannula. Blood samples (˜0.15 mL) were collected through carotid artery cannula at respective time points and transferred immediately into K2EDTA-coated tubes (that contain quenching media-acetic acid, PMSF and Dichlorvos) and placed on ice. The samples were centrifuged within thirty minutes after collection at 10,000 RPM for five minutes and the resulting plasma was separated. Plasma were transferred into microfuge tubes and placed on dry ice immediately. The plasma samples were stored at approximately −70° C. until shipped on dry ice for Bioanalysis by LC/MS/MS. Urine samples were collected using metabolic cages into a tube containing citric acid (4 mg for 0-4 and 4-8 hr interval and 16 mg for 8-24 hr interval) on wet ice at the intervals specified in the study design. After the completion of urine collection at each interval, each cage was rinsed with 2 mL of deionized water (1 mL each time). The rinse was collected in the separate labeled container (containing 2 mg of citric acid) as the urine. Following this rinse another 2 ml rinse was carried out with ethanol (1 ml each time). The rinse was also collected in the separate labeled container as the urine. Samples were stored frozen at −70° C. until bioanalysis by LC/MS/MS was performed.
(§4) Pharmacokinetic parameters were determined by non-compartmental analysis using Phoenix®WinNonlin® (Version 6.3; Pharsight Corp., Mountain View, Calif.). Nominal doses and sampling times were used for the analysis. Concentrations reported as BLQ were treated as missing unless they were pre-dose; then they were set to zero. Maximum plasma concentration (Cmax) and time of observed maximum plasma analyte concentration (Tmax) were generated by Phoenix®WinNonlin®, directly from the inputed dataset. […] Area under the plasma concentration-time curve from time 0 to infinity (AUCinf) was calculated as the sum of AUClast and the last observed concentration divided by k. Total plasma clearance (CL) was calculated as Dose/AUCinf. Apparent volume of distribution at steady state (Vss) was calculated as MRTinf*CL, where MRT is the mean residence time.

human hepatocytes = experiment: MetID determination in human hepatocytes; assay type: in vitro ADME
Procedure: (§1) Cryopreserved human and Sprague-Dawley rat hepatocytes were thawed in a 37° C. water bath. […] Samples were obtained from separate plates for each time point during the incubation. At each sampling time, the plates were removed from the incubator, quenched by adding 100 μL cold acetonitrile, and placed in an ice bath until centrifugation at 4,000 rpm for 30 minutes at 4° C. Supernatants were stored at or below −70° C. until LC-MS/MS analysis could be conducted. The liquid chromatography system used was Agilent 1100 Autosampler, Binary Pump, DAD and Column Enclosure. Tandem mass spectrometry was conducted using a Thermo DECA XP MAX Ion Trap Mass Spectrometer. The ion source was Electrospray (+) and the LC column used was a Varian, Polaris 5 C18-A (250×2.1 mm, 5 micron) column.
(§2) Metabolic pathways of metoclopramide and conjugates were determined in rat and human hepatocytes. N-dealkylation was the major metabolic pathway for metoclopramide in rats, and metabolism in human hepatocytes was minimal. […] FIG. 2 and FIG. 3 show the metabolic pathway of for mPEG1-N-metoclopramide and mPEG4-N-metoclopramide, respectively. […] In this figure, different metabolites for each conjugate are denoted with the “M” and correspond to the designation provided in the figure for a given conjugate. For example, metabolite M1 for mPEG1-N-metoclopramide in Table 6 corresponds to M1 in FIG. 2, metabolite M2 for mPEG4-N-metoclopramide in Table 6 corresponds to M2 in FIG. 3 and metabolite M3 mPEG8-N-metoclopramide in Table 6 corresponds to M3 in FIG. 4.

in vivo = settings: male, Sprague Dawley, rat, plasma; for AUC(0-inf) / MRT inf / Vd / clearance / half-life: iv, 0.5 mg/kg
Procedure: as §3, §4

[3] = system: Sprague-Dawley rat hepatocytes; experiment: MetID determination in rat hepatocytes; assay type: in vitro ADME; settings: for major metabolic pathway: rat hepatocytes
Procedure: as §1, §2

[4] = molecular target: serotonin 4 receptor (5HT4) (Homo sapiens, UniProt Q13639); experiment: cAMP accumulation assay (serotonin 4 receptors); assay type: cell-based; settings: for Fold-change Relative to Parent: IC50 relative to metoclopramide, 5HT4 cAMP; for IC50: cAMP accumulation, CHO-K1 cells stably expressing 5HT4
[5] = incubation of 10 μM mPEG8-N-metoclopramide, parent and its metabolites M (FIG. 4)
[6] = incubation of 10 μM mPEG1-N-metoclopramide, parent and its metabolites M (FIG. 2)
[7] = incubation of 10 μM mPEG4-N-metoclopramide, parent and its metabolites M (FIG. 3)

Chain of serotonin 4 receptor (5HT4) (Q13639 whole entry, species assumed): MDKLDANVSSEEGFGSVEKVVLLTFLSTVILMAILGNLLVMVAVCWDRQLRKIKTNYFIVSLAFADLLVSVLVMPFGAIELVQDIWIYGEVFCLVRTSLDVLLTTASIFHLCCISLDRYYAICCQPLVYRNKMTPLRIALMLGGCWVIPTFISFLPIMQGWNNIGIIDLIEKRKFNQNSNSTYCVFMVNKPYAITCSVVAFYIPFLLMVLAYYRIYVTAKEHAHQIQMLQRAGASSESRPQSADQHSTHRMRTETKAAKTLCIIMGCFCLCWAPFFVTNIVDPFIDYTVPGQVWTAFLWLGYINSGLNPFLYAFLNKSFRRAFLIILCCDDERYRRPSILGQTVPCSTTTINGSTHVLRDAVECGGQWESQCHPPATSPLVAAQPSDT
T2 sequence (Q13639 whole entry): as the sequence (Q13639 whole entry, species assumed) above
Chain of dopamine 2L receptors (P14416 whole entry): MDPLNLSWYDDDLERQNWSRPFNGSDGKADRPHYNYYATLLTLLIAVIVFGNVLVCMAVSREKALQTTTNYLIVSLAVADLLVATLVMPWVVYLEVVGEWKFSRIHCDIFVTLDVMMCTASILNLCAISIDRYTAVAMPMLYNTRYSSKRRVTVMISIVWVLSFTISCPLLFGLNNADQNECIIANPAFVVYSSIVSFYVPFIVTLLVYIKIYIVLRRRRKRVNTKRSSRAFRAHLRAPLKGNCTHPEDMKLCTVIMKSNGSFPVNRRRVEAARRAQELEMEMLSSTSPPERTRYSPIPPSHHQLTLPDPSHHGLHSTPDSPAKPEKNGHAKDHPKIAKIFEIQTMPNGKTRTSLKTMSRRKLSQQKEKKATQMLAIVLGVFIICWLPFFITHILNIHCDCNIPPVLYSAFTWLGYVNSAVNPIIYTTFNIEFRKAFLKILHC
T1 sequence (P14416 1-414 isoform P14416-2): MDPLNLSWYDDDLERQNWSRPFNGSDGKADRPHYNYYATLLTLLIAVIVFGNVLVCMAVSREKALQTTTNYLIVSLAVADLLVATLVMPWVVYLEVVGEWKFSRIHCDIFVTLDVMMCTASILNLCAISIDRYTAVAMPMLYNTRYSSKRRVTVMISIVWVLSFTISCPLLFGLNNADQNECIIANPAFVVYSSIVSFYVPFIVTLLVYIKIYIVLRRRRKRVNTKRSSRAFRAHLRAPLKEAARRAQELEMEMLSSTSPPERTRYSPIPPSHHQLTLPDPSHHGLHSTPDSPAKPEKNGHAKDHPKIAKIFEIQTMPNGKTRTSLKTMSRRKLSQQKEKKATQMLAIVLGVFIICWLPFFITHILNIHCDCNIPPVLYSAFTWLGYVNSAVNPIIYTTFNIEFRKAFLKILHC

SMILES | Fold-change Relative to Parent (dopamine 2L receptors) | IC50 (dopamine 2L receptors) | Fold-change Relative to Parent (dopamine 2S receptor) | IC50 (dopamine 2S receptor) | Fold-change Relative to Parent [1] | IC50 [1] | CLRen [2] | extent of metabolism in human hepatocytes (human hepatocytes) | AUC(0-inf) (in vivo) | MRT inf (in vivo) | Vd (in vivo) | clearance (in vivo) | half-life (in vivo) | major metabolic pathway [3] | Clast [2] | Tlast [2] | AUC (in vivo; po, 2.5 mg/kg) | Cmax (in vivo; po, 2.5 mg/kg) | Tmax (in vivo; po, 2.5 mg/kg) | bioavailability (in vivo; po, 2.5 mg/kg) | other results
CCN(CCNC(=O)c1cc(Cl)c(N)cc1OC)CCOCCOC [mPEG2-N-Metoclopramide] | 16.1 | 1.36 µM | 9.57 | 0.786 µM | 2.0 | 29.7 µM |  |  |  |  |  |  |  |  |  |  |  |  |  |  | 
CCN(CCNC(=O)c1cc(Cl)c(N)cc1OC)CCOCCOCCOCCOCCOCCOCCOCCOCCOC [mPEG9-N-Metoclopramide] | 131.9 | 11.1 µM | 87.86 | 7.22 µM | 13.3 | 202 µM |  |  |  |  |  |  |  |  |  |  |  |  |  |  | Fold-change Relative to Parent (dopamine 2S receptor; listed as mPEG9-N-metoclopramide): 87.6
CCN(CCNC(=O)c1cc(Cl)c(N)cc1OC)CCOCCOCCOCCOCCOCCOCCOCCOC [mPEG8-N-Metoclopramide] | 80.7 | 6.79 µM | 67.4 | 5.53 µM and 5.54 µM | 11.9 | 181 µM | 0.54 mL/min/kg | only minor metabolism | 98.3 ng·h/mL | 146 min | 17.8 L/kg | 84.4 mL/min/kg | 145 min | PEG chain modification |  |  |  |  |  |  | % of Total Metabolism, Human Hep 1 hr (human hepatocytes; [5]): 100%; % of Total Metabolism, Human Hep 4 hr (human hepatocytes; [5]): 94.8%; N-dealkylation compared with metoclopramide ([3]; hepatocytes): less compared with metoclopromide; % of Total Metabolism, Rat Hep 1 hr [3, 5]: 83%; % of Total Metabolism, Rat Hep 4 hr [3, 5]: 43.5%
CCN(CCNC(=O)c1cc(Cl)c(N)cc1OC)CCOCCOCCOCCOCCOCCOCCOC [mPEG7-N-Metoclopramide] | 137.3 | 11.6 µM | 99.57 | 8.18 µM | 8.8 | 133 µM |  |  |  |  |  |  |  |  |  |  |  |  |  |  | 
CCN(CCNC(=O)c1cc(Cl)c(N)cc1OC)CCOC [mPEG1-N-Metoclopramide] | 2.8 | 0.233 µM | 4.19 | 0.345 µM | 1.3 | 19.7 µM | 4.4 mL/min/kg | low metabolism | 88.3 ng·h/mL | 27.6 min | 2.84 L/kg | 101 mL/min/kg | 39 min | N-dealkylation | 4.39 ng/mL | 2.5 h | 24.2 ng·h/mL | 33.2 ng/mL | 4.8 min | 6.25% | % of Total Metabolism, Human Hep 1 hr (human hepatocytes; [6]): 86.5%; % of Total Metabolism, Human Hep 4 hr (human hepatocytes; [6]): 90.2%; CL/F (in vivo; po, 2.5 mg/kg): 1550 mL/min/kg; % of Total Metabolism, Rat Hep 1 hr [3, 6]: 32.7%; % of Total Metabolism, Rat Hep 4 hr [3, 6]: <1.0%; Fold-change Relative to Parent [4]: 1.5; IC50 [4]: 1.59 µM
CCN(CCNC(=O)c1cc(Cl)c(N)cc1OC)CCOCCOCCOCCOC [mPEG4-N-Metoclopramide] | 38.7 | 3.26 µM | 37.03 | 3.04 µM | 2.0 | 30.7 µM | 9.0 mL/min/kg | low metabolism | 63.5 ng·h/mL | 33.6 min | 7.17 L/kg | 133 mL/min/kg | 39 min | N-dealkylation | 3 ng/mL | 5 h | 41.4 ng·h/mL | 16.6 ng/mL | 120 min | 14.5% | % of Total Metabolism, Human Hep 1 hr (human hepatocytes; [7]): 100%; % of Total Metabolism, Human Hep 4 hr (human hepatocytes; [7]): 93.7%; % of Total Metabolism, Rat Hep 1 hr [3, 7]: 61.5%; % of Total Metabolism, Rat Hep 4 hr [3, 7]: 16.1%; Fold-change Relative to Parent [4]: 0.62; IC50 [4]: 0.644 µM and 0.64 µM
